From patent publication US9878054B2, “Polypeptide and lipophilic moiety conjugate compositions, formulations, and uses related thereto” (Tufts Medical Center, Inc., priority 2012, dated 2018) come the findings set out here.

Where a SMILES comes first, the peptide text is derived from it. The star is where a group is joined. Palmitoyl = CCCCCCCCCCCCCCCC(=O)*

The test system of data set [1] is human whole blood (red blood cell lysis). Kind of data set: Hemolysis of human whole blood. The class given is cell-based. The conditions noted are these: up to 3.3 mg/mL in 5% dextrose, blood mixed 2:1; 40 min at 37° C. How it is done:
Fresh human whole blood (anticoagulated with 10 U heparin/mL) was mixed 2:1 with the various indicated dilutions of micelles of PZ-128 in 5% dextrose, incubated for 40 min at 37° C., and red blood cell lysis quantified by hemoglobin (Hb) release into the supernatant.
The PZ-128 micelle particles were solubilized in 5% dextrose/water at 10 mg/mL concentration and serially diluted with additional 5% dextrose/water to make stock solutions of 0.75, 1.5, 2.25, 3.0, 3.3 and 4.0 mg/mL PZ-128 in 5% dextrose water. Fresh human whole blood (anticoagulated with 10 U heparin/mL) was mixed 2:1 with the various dilutions of PZ-128 in 5% dextrose, incubated for 40 min at 37° C., and red blood cell lysis quantified by hemoglobin (Hb) release into the supernatant. […] The final pH of the PZ-128 micelles in 5% dextrose/water ranged from 6.75 to 7.13 at 1.25-10 mg/mL at room temperature.

The subject of data set [2] is guinea pig platelets (ADP). The data set is described as follows: Guinea pig ex vivo platelet aggregation to ADP after iv infusion. The class given is in vivo. The conditions noted are these: 3 or 6 mg/kg iv, 20 μM ADP.
Procedure: (§1) PZ-128 or 5% dextrose USP vehicle was infused for 10 min into the jugular vein of male and female guinea pigs (0.55-0.65 kg). A-C, At the 15 min time point, whole blood was collected by cardiac puncture in 100 μg/ml PPACK/4% Na-citrate (final) anti-coagulant and platelet rich plasma (PRP) prepared and aggregation measurements were performed. […] B-C, PRP obtained at the 15 min time point after infusion with vehicle, 3 mg/kg PZ-128 or 6 mg/kg PZ128 was challenged with 2.5 μM SFLLRN, 20 μM ADP or 20 μM thromboxane mimetic, U46119. Individual data points (n=3) are overlayed on bar graphs depicting mean±SD. […] Data in B-D were analyzed by the non-parametric Kruskal-Wallis test with the Dunn's multiple pairwise comparison post-test.
(§2) PZ-128 micelles were delivered by internal jugular vein infusions over 10 min.
(§3) Guinea pigs weighing 600-650 g were used for platelet aggregation experiments. PZ-128 micelles (3 or 6 mg/kg) were administered by a 10 min intravenous infusion, and blood was collected by cardiac puncture into sodium citrate (0.4% vol/vol final) 5 minutes after cessation of the infusion. PRP was prepared and PPACK added to a final concentration of 100 μg/ml. PRP was calcified with 2.5 mM CaCl2 and aggregation was performed as described above.
Data set [3] can be described thus: Pharmacokinetics of PZ-128 in baboon plasma (LC/MS/MS). The class given is in vivo. How it is done:
A-C, Male baboons (10-12 kg) were administered 1, 3 or 6 mg/kg PZ-128, or 5% dextrose USP vehicle by iv infusion and blood collected into 100 μg/ml PPACK anticoagulant at 0, 1, 2, 6, or 24 h time points. Light transmission platelet aggregometry was performed with platelet rich plasma with the indicated agonists (SFLLRN for PAR1, AYPGKF for PAR4 and ADP for P2Y12 and P2Y1). Data are reported as mean±SD (n=3-7) relative to time 0 controls (0%) and were analyzed by repeated measures one-way ANOVA with Bonferroni post-test correction; *P<0.05, **P<0.01 relative to time 0. Global P values were >0.05 for 1 mg/kg, 0.004 for 3 mg/kg, <0.0001 for 6 mg/kg. D, Pharmacokinetics of 3 and 6 mg/kg 45-min iv infusions of PZ-128 in male baboons. Plasma PZ-128 levels were measured by LC/MS/MS at 9 sequential time points: baseline, 15 min, 30 min, 1 h, 2 h, 4 h, 8 h, 24 h and 48 h after the start of infusion. Open symbols indicated plasma concentrations that were under the measurement threshold (5 ng/ml).
The maximal plasma concentration of PZ-128 was 14 μmol/L at the 6 mg/kg dose and 5.6 μmol/L for the 3 mg/kg dose. […] The pharmacokinetic and anti-platelet pharmacodynamic properties of PZ-128 micelles indicate that this lipopeptide reaches maximal activity during and immediately after intravenous infusion and is completely eliminated by the next day.
Various doses of PZ-128 micelles were infused intravenously for 45 min to baboons. At sequential time points, whole blood was drawn into 3.2% citrate buffer and immediately centrifuged at 3000 rpm for 10 min. Platelet-poor plasma (PPP) samples were harvested and stored at −80° C. PZ-128 drug levels in PPP samples were determined was using an API 4000 LC/MS/MS system (Agilux Laboratories, Worcester, Mass.).

Data set [4] can be described thus: PT, aPTT, bleeding and plasma levels in cynomolgus monkeys after daily iv infusions. The class given is in vivo. The conditions noted are these: cynomolgus monkey. The protocol: PZ-128 micelles were also administered daily for 4 days to adult male and female cynomolgus monkeys with 1 h iv infusions of 3 mg/kg, 10 mg/kg and 30 mg/kg PZ-128. Coagulation parameters prothrombin time (PT) and activated partial thromboplastin time (aPTT) were unaffected in all monkeys at 3-30 mg/kg PZ-128 at either day 1 and day 5 as compared to baseline or vehicle-treated animals (Table 2).
PZ-128 micelles (0, 3, 10 or 30 mg/kg) were administered intravenously to 2.5-4.5 kg male and female cynomolgus monkeys by infusion over 1 h at MPI Laboratories (Mattawan, Mich.). Peripheral venous blood was collected from cynomolgus monkeys into K3EDTA anticoagulant at baseline (Day −8) and at two time points (Day 1 and Day 5) after daily 1-h intravenous PZ-128 micelle infusions on days 1-4. PT and aPTT were analyzed immediately on a MLA-800 coagulation analyzer.

The subject of a further data set is PAR1. Kind of data set: Guinea pig ex vivo platelet aggregation to SFLLRN after iv infusion. The class given is in vivo. Conditions: 3 and 6 mg/kg, 10 min iv infusion, 15 min time point, 2.5 μM SFLLRN.
The next data set relates to human platelets (ADP). The data set is described as follows: Human platelet aggregation, ADP. The class given is cell-based. The conditions noted are these: 20 μM ADP. The protocol: A, Depiction of the mechanism of action of the cell-penetrating PZ-128 pepducin compound targeting the third intracellular loop (red) of PAR1. B, The NMR structure of PZ-128 was determined by simulated annealing methods using 210 distance restraints and included restraints to the proximal 3 hydrocarbons of the lipid. […] D, PZ-128 inhibits PAR1-dependent platelet aggregation. Gel filtered human platelets were treated with various concentrations of PZ-128 and then challenged with the PAR1 agonist SFLLRN (2.5 μM), 20 μM ADP, 200 μM AYPGKF or 1 mg/ml Ristocetin. E, Human platelets were treated with 3 μM PZ-128, 3 μM RWJ-56110, or 5% dextrose vehicle before the addition of various concentrations of thrombin (n=3-5).
PZ-128 also markedly right-shifted thrombin-induced aggregation by 5-fold. By comparison, the small molecule RWJ-56110 which antagonizes PAR1 at the extracellular ligand-binding site gave a 2-fold right shift in the thrombin activation curve of human platelets.
Whole blood from healthy donors was collected into a 30 ml syringe containing sodium citrate (0.4% vol/vol final). Platelets were isolated from platelet rich plasma (PRP) using Sepharose 2B columns in modified PIPES buffer.

[5] abbreviates: 3-30 mg/kg, 1 h iv infusion daily for 4 days, day 1 and day 5.

Procedure for PAR1: as §1, §2, §3

Take `CCCCCCCCCCCCCCCC(=O)N[C@@H](CCCCN)C(=O)N[C@@H](CCCCN)C(=O)N[C@@H](CO)C(=O)N[C@@H](CCCNC(=N)N)C(=O)N[C@@H](C)C(=O)N[C@@H](CC(C)C)C(=O)N[C@@H](Cc1ccccc1)C(N)=O` [PZ-128, palmitate-KKSRALF-NH2] (Palmitoyl-KKSRALF-NH2): the “Hemolysis of human whole blood (Hb release)” value in data set [1] is recorded as “no significant hemolysis”. Besides, the “Effect on ex vivo aggregation to ADP” value in data set [2] was “no effect”. The Plasma half life in data set [3] (3 and 6 mg/kg iv infusion) was 50 to 80 min. In data set [3] (24-48 h, measurement threshold 5 ng/ml), the “Plasma level at late time points” value is on record as “not detectable”. The Clearance from plasma result in data set [3] (by 8 h) is “nearly completely cleared”. The same molecule gave a half-life in data set [3] (male, plasma, iv, 3 and 6 mg/kg iv infusion) of 50 to 81 min. For the same molecule, the maximum concentration (Cmax) in data set [4] (both sexes, plasma, up to 30 mg/kg iv infusion) is above 200 µM. Further, in data set [4] (3-30 mg/kg daily iv), the “Spontaneous, venous access, or retinal bleeding” value is “No spontaneous, venous access, or retinal bleeding was observed”. In data set [4] (setting [5]), the “Activated partial thromboplastin time (aPTT)” value was “unaffected” and the “Prothrombin time (PT)” value is “unaffected”. Moreover, the “Inhibition of ex vivo platelet aggregation to SFLLRN” value with PAR1 is “significant, dose-dependent inhibition”. In addition, the “Inhibitory activity against ADP aggregation” value with human platelets (ADP) was “no inhibitory activity”.

One may read the half-life as the time needed for the level to fall by half in the phase considered. Low values mean rapid decline, high ones slow decline. As usually defined, the Cmax is the maximum level reached in the sampled fluid or tissue.
